Source: publication PMC3004914, “Classification of Drugs Based on Properties of Sodium Channel Inhibition: A Comparative Automated Patch-Clamp Study” (PLoS ONE, 2010)
Values joined by “and” are separate entries in the source; they are usually repeats but may differ in a detail not shown here. Equal values may be shown once. Read-outs that look alike come from different tables or passages of the source.

What was measured:
[1] = molecular target: sodium channels; conditions: averaged literature data, cited from earlier work; for Ki: read-out: Ki−Lit; for Kd: read-out: Kr−Lit
[2] = human plasma, cited from earlier work
[3] = molecular target: T1, rNav1.2 sodium channels (HEK-293 cells) (Rattus norvegicus, UniProt P04775); test: steady-state inactivation protocol (availability curves), QPatch automated patch-clamp; format: cell-based
T1 sequence (P04775 whole entry, the tested form may be a part): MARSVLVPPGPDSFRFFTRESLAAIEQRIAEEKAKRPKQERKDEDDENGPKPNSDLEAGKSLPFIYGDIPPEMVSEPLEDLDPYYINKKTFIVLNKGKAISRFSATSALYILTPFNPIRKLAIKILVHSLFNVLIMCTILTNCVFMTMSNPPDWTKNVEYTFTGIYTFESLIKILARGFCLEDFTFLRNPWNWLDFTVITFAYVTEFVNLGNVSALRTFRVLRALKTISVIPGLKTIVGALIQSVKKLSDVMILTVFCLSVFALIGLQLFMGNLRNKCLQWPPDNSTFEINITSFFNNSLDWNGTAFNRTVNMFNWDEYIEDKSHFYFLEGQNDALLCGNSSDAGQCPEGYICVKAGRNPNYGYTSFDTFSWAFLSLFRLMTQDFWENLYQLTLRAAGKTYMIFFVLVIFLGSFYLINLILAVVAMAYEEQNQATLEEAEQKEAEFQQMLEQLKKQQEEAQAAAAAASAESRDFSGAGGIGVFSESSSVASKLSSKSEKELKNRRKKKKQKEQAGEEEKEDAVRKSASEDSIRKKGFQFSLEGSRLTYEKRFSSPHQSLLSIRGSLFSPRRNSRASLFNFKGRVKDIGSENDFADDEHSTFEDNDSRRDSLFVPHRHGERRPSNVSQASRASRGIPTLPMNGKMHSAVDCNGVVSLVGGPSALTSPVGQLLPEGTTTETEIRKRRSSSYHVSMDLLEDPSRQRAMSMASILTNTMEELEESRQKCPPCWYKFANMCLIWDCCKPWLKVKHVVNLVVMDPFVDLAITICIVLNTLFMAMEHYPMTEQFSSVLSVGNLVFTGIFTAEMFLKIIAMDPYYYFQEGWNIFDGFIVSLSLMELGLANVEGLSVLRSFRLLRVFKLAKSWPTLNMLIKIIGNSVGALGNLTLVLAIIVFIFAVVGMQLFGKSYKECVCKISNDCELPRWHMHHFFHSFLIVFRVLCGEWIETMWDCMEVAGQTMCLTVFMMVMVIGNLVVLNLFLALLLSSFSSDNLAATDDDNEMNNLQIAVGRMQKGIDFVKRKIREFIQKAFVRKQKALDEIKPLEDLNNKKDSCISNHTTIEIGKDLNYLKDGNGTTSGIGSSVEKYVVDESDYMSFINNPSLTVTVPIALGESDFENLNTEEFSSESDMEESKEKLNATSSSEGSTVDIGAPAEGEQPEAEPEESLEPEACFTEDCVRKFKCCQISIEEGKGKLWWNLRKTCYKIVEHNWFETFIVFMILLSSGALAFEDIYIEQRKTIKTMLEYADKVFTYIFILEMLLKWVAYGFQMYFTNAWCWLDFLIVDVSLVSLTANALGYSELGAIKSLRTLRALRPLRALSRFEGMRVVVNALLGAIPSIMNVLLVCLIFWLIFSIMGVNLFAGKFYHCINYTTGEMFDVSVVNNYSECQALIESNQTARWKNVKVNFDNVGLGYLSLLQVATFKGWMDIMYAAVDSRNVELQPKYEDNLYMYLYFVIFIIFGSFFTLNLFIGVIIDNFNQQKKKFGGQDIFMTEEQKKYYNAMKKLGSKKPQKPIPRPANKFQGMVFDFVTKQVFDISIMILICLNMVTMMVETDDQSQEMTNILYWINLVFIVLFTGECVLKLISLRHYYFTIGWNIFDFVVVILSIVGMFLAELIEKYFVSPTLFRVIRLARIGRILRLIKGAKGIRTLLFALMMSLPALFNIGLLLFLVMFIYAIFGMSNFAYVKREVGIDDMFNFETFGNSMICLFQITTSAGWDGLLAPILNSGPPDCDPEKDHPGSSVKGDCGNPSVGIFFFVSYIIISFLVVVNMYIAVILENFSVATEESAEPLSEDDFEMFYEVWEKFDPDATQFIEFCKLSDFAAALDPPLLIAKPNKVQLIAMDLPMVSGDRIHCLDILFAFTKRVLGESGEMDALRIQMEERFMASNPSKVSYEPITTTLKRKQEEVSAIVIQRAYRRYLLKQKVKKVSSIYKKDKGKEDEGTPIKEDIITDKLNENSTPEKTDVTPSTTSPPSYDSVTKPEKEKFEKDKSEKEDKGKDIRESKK
Excerpt: (§1) A)–D) Peak amplitudes of evoked currents (5 Hz trains of 5 depolarizations from −90 to −10 mV) are plotted against time. Black dots: Control. Grey dots: Drug perfusion. […] Calculation of properties of inhibition is illustrated. […] E) Calculation of Kr and Ki values from steady-state availability curves.
Standard steady-state inactivation protocols were used to measure the shift of steady-state availability curve caused by the drugs. Currents were evoked by a 10 ms test pulse to −10 mV, preceded by 400 ms pre-pulses from −150 to −30 mV. […] Because the inhibition at hyperpolarized potentials (Inh−150), and the shift of the availability curves (ΔV1/2) are both concentration-dependent properties, we calculated affinities to hyperpolarized and depolarized states (“resting state affinity”: Kr, and “inactivated state affinity”: Ki), which, on the other hand, are concentration-independent characteristics of individual drugs. Calculation of Kr and Ki values are described in Materials and Methods, and illustrated in Figure 1E. State-dependence (SD) was quantified as the ratio Kr/Ki.
(§2) HEK-293 cells stably expressing rNav1.2 sodium channels were obtained from NeuroSearch (Ballerup, Denmark).
(§3) Cells were automatically prepared for application to the chips (centrifuged and washed twice, then resuspended in extracellular solution) as described previously. Composition of the extracellular solution was: (in mM): 140 NaCl, 3 KCl, 1 CaCl2, 1 MgCl2, 0.1 CdCl2, 20 TEA-Cl, 5 HEPES, adjusted to pH 7.3, Osmolality: ∼320 mOsm.
(§4) All electrophysiological experiments were conducted on Qpatch-16 or QPatch HT instruments using QPlate™ chips. For a detailed description of the instrument and the patch-clamp chips see [37], [38]. Data were sampled at a frequency of 25 kHz and filtered at 5 kHz. […] The amplifier was controlled and the data were collected by the Sophion QPatch client software. For initial data analysis the QPatch software was used. Built-in amplifiers provide an improved method for series resistance compensation. Leak subtraction (based on a standard P/n protocol) was used to subtract the capacitive component of currents.
Inactivated affinity (Ki) values were calculated assuming a simple four-state model of drug binding and channel gating, using two separate methods: (1) from the shift of the availability curve (ΔV1/2), the slope of the Boltzmann fit of the availability curve (k) and Kr, using the formula described by Bean, Cohen and Tsien (Ki−ΔV1/2; see Figure 1E), or (2) from the apparent affinity (Kapp) at a certain pre-pulse potential, which was calculated from the inhibition (e.g. Inh−60) as described above, and the availability (h) at the same pre-pulse potential, using the formula from Kuo and Bean (Figure 1E). […] (Arithmetic means and SEM values are given in Results S7.)

[4] = molecular target: T1, rNav1.2 sodium channels (HEK-293 cells); test: 5 Hz train protocol, QPatch automated patch-clamp; format: cell-based; conditions: for Rev (reversibility): Rev = A5/A1 after washout; for potency estimated from few doses: −90 mV, read-out: IC50;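 for UD (use-dependence of the inhibition): UD = (A3/A4)/(A1/A2) as ratios of peak amplitudes from Figure 1A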
Excerpt: The dynamics of the onset and offset of inhibition was monitored using 5 Hz trains of five depolarizing pulses from a holding potential of −90 mV to −10 mV. The trains were repeated every 20 s. Drugs were applied after 10 control trains and 10 trains were delivered in the presence of the drug. The drug was then washed out, and the 10 trains were repeated.
We measured inhibition (Inh; from which we calculated IC50 values as described in Materials and Methods), reversibility of inhibition (Rev) and use-dependence (UD), as well as time constant of onset (τon) and offset (τoff). The calculation of IC50, quantification of Rev and UD, and the determination of time constants are illustrated in Figure 1A. Because τon should be concentration-dependent if we assume a single binding reaction, we excluded it from the analyses. […] Comments on the interpretation of these properties (Rev, […] and UD) are in Results S1.
as §1, §2, §3, §4
From this protocol we extracted five parameters, as illustrated in Figure 1A. We calculated inhibition of a single “cc” concentration: Inh = (amplitudectr – amplitudedrug)/amplitudectr.

[5] = 100 μM, 500 s assigned where irreversible
[6] = HEK293, 100 μM, −90 mV holding potential, 5 Hz train, read-out: Inh (inhibited fraction)
[7] = HEK293, calculated from Inh at single concentration 100 μM, 5 Hz train
[8] = HEK293, 30 µM, read-out: Inh (inhibited fraction) at holding potential −150 mV
[9] = arithmetic mean, 30 µM, read-out: Ki-Kapp arith
[10] = arithmetic mean, 30 µM, read-out: Ki-ΔV1/2 arith
[11] = arithmetic mean, 30 µM, read-out: Kr arith
[12] = geometric mean, from Inh at −150 mV, 30 µM, read-out: Kr (resting state affinity)
[13] = geometric mean, from apparent affinity, 30 µM, read-out: Ki−Kapp (inactivated state affinity)
[14] = geometric mean, from shift of availability curve, 30 µM, read-out: Ki−ΔV1/2 (inactivated state affinity)
[15] = 30 μM, 500 s assigned where irreversible
[16] = HEK293, 30 μM, −90 mV holding potential, 5 Hz train, read-out: Inh (inhibited fraction)
[17] = HEK293, calculated from Inh at single concentration 30 μM, 5 Hz train

SMILES | Ki [1] [µM] | Kd [1] [µM] | plasma conc. ([2]; as printed in each cell) | plasma conc. ([2]; as printed in the µg/ml cell) [µM] | ΔV1/2 (shift of availability curve) ([3]; 30 μM) [mV] | inhibition at 30 µM [3, 8] [%] | Ki [3, 9] [µM] | Ki [3, 10] [µM] | Kd [3, 12] [µM] | Ki [3, 13] | Ki [3, 14] [µM] | τon ([4]; 30 μM) [s] | UD (use-dependence of the inhibition) ([4]; 30 μM, 5 Hz train) | τoff [4, 15] [s] | Rev (reversibility) ([4]; 30 μM) | potency estimated from few doses [4, 17] [µM] | further results
CN(C)CCCN1c2ccccc2CCc2ccccc21 [IMI, Imipramine] | 0.89 | 26.5 | 0.2 [44] µg/ml | 0.631 | – | – | – | – | – | – | – | – | – | – | – | – | –
Nc1c(Br)cc(Br)cc1CN[C@H]1CC[C@H](O)CC1 [AMB, Ambroxol] | 8.17 | 110 | – | – | – | – | – | – | – | – | – | – | – | – | – | – | inhibition at 100 µM ([3]; HEK293, 100 µM, read-out: Inh (inhibited fraction) at holding potential −150 mV): 33%; Ki ([3]; arithmetic mean, 100 µM, read-out: Ki-Kapp arith): 18.6 µM; Ki ([3]; arithmetic mean, 100 µM, read-out: Ki-ΔV1/2 arith): 12.8 µM; Kd ([3]; arithmetic mean, 100 µM, read-out: Kr arith): 201 µM; Kd ([3]; geometric mean, from Inh at −150 mV, 100 µM, read-out: Kr (resting state affinity)): 201 µM; Ki ([3]; geometric mean, from apparent affinity, 100 µM, read-out: Ki−Kapp (inactivated state affinity)): 17.6 µM; Ki ([3]; geometric mean, from shift of availability curve, 100 µM, read-out: Ki−ΔV1/2 (inactivated state affinity)): 12.2 µM; τon ([4]; 100 μM): 5.74 s; UD (use-dependence of the inhibition) ([4]; 100 μM, 5 Hz train): 1.24; τoff [4, 5]: 6.78 s; Rev (reversibility) ([4]; 100 μM): 0.81; inhibition at 100 µM [4, 6]: 51%; potency estimated from few doses [4, 7]: 95.9 µM
O=C(NCC1CCCCN1)c1cc(OCC(F)(F)F)ccc1OCC(F)(F)F (stereo not drawn) [FLC, Flecainide] | 5.55 | 355 | – | – | – | – | – | – | – | – | – | – | – | – | – | – | inhibition at 300 µM ([3]; HEK293, 300 µM, read-out: Inh (inhibited fraction) at holding potential −150 mV): 82%; Ki ([3]; arithmetic mean, 300 µM, read-out: Ki-Kapp arith): 6.1 µM; Ki ([3]; arithmetic mean, 300 µM, read-out: Ki-ΔV1/2 arith): 9.72 µM; Kd ([3]; arithmetic mean, 300 µM, read-out: Kr arith): 65 µM; Kd ([3]; geometric mean, from Inh at −150 mV, 300 µM, read-out: Kr (resting state affinity)): 64.7 µM; Ki ([3]; geometric mean, from apparent affinity, 300 µM, read-out: Ki−Kapp (inactivated state affinity)): 5.7 µM; Ki ([3]; geometric mean, from shift of availability curve, 300 µM, read-out: Ki−ΔV1/2 (inactivated state affinity)): 7.9 µM; Kr ([3]; in words): low Kr; difference between Kr and IC50 [4]: no difference; τoff ([4]; 300 μM): 64.97 s; τon ([4]; 300 μM, 3 s assigned where too short to be resolved): 20.04 s; UD (use-dependence of the inhibition) ([4]; 300 μM, 5 Hz train): 1.34; Rev (reversibility) ([4]; 300 μM): 0.57; use-dependence (UD) ([4]; 5 Hz train): high; inhibition at 300 µM ([4]; HEK293, 300 μM, −90 mV holding potential, 5 Hz train, read-out: Inh (inhibited fraction)): 82%; potency estimated from few doses ([4]; HEK293, calculated from Inh at single concentration 300 μM, 5 Hz train): 67.6 µM
CN(C)CC/C=C1/c2ccccc2Sc2ccc(Cl)cc21 [CHX, Chlorprothixene] | – | – | 0.07 [50] µg/ml | 0.200 | −15.8 | 20 | 2.21 | 1.14 | 128 | 1.74 µM | 0.73 | 7.24 | 1.25 | 14.41 | 0.18 | 42.5 | Kd [3, 11]: 144 µM; inhibition at 30 µM [4, 16]: 28%
CCc1nn(CCCN2CCN(c3cccc(Cl)c3)CC2)c(=O)n1CCOc1ccccc1 [NFZ, Nefazodone] | – | – | 1.52 [48] µg/ml | 3.007 | −17.4 | 9 | 1.1 | 1.05 | 567 | 0.92 µM | 0.87 | 8.75 | 1.22 | 10.93 | 0.51 | 46.4 | inhibition at 30 µM [4, 16]: 39%
CNCCC(Oc1ccccc1OC)c1ccccc1 (stereo not drawn) [NIS, Nisoxetine] | – | – | 0.05 [46] µg/ml | 0.159 | – | – | – | – | – | – | – | – | – | – | – | – | ΔV1/2 (shift of availability curve) ([3]; 100 μM): −6.68 mV; inhibition at 100 µM ([3]; HEK293, read-out: Inh (inhibited fraction) at holding potential −150 mV): 34%; Ki ([3]; Ki-Kapp arith, arithmetic mean, 100 µM): 7.63 µM; Ki ([3]; Ki-ΔV1/2 arith, arithmetic mean, 100 µM): 19.5 µM; Ki ([3]; Ki−Kapp (inactivated state affinity), geometric mean, from apparent affinity, 100 µM): 7.1 µM; Ki ([3]; Ki−ΔV1/2 (inactivated state affinity), geometric mean, from shift of availability curve, 100 µM): 19.1 µM; Kd ([3]; Kr (resting state affinity), geometric mean, from Inh at −150 mV, 100 µM): 194 µM; Kd ([3]; Kr arith, arithmetic mean, 100 µM): 196 µM; τon ([4]; 100 μM): 20.71 s; UD (use-dependence of the inhibition) ([4]; 100 μM, 5 Hz train): 1.33; τoff [4, 5]: 23.41 s; Rev (reversibility) ([4]; 100 μM): 0.66; inhibition at 100 µM [4, 6]: 57%; potency estimated from few doses [4, 7]: 75.7 µM
Cc1nc2sccn2c(=O)c1CCN1CCC(=C(c2ccc(F)cc2)c2ccc(F)cc2)CC1 [RIT, Ritanserin] | – | – | 0.14 [54] µg/ml | 0.299 | −7.28 | 13 | 6.52 | 7.69 | 206 | 6.1 µM and 6.13 µM | 7.1 | 14.38 | 1.09 | 22.28 | 0.37 | 23.6 | Kd [3, 11]: 225 µM
